The conditions of the data set: in vivo.

As to `CC1=C(/C=C/C(C)=C/C=C/C(C)=C/C(=O)O)C(C)(C)CCC1` [tretinoin, (all-E)-3,7-dimethyl-9-(2,6,6-trimethyl-1-cyclohexen-1-yl)-2,4,6,8-nonatetraenoic acid], the “Percutaneous absorption of unchanged drug into the systemic circulation” value was “minimal”.
As to `CC1(C)O[C@@H]2C[C@H]3[C@@H]4C[C@H](F)C5=CC(=O)C=C[C@]5(C)[C@@]4(F)[C@@H](O)C[C@]3(C)[C@]2(C(=O)CO)O1` [fluocinolone acetonide, (6,11,16)-6,9-difluoro-11,21-dihydroxy-16,17-[(1-methylethylidene)bis(oxy)]-pregna-1,-4-diene-3,20-dione], the “Percutaneous absorption of unchanged drug into the systemic circulation” value is “minimal” and the Post-dose plasma concentrations entry is “undetectably low”.
With `Oc1ccc(O)cc1` [hydroquinone, 1,4-benzenediol], the “Percutaneous absorption of unchanged drug into the systemic circulation” value is “minimal” and the Post-dose plasma concentrations entry is “undetectably low”. Where the note is “human, 8 weeks”, the “Number of subjects with quantifiable plasma concentrations” value was determined as 8 and the “Subjects with quantifiable plasma concentrations” value was determined as 18%.

The record behind these values is US9333172B2, “Topical skin care composition” (GALDERMA S.A., priority 2002, dated 2016).
